Measured values taken from patent US20210290676A1, “IMPROVING THE EFFICACY AND SAFETY OF ADOPTIVE CELLULAR THERAPIES” (University of Southern California, priority 2018, published 2021).

What was measured:
Assay type in all cases: cell-based, human
[1] = system: Pgp+ (DiOC2(3)-dye effluxing) T cells; experiment: DiOC2(3) dye efflux flow cytometry of inhibitor-treated T cells
Method: (§1) The use of P-glycoprotein (Pgp)-mediated efflux of DiOC2(3) to isolate stem like T cells for adoptive cellular therapy has been described in application no. […] In the following examples, DiOC2(3) staining was used to study the effect of different inhibitors on generation of stem like T cells.
(§2) DAY 0: Blood was obtained from unidentified donor. After RBC lysis, PBMC were collected using Ficoll-Hypaque separation. […] T cells were cultured in three different conditions: • 1. XVIVO 15 medium (Lonza) with IL2 50 IU/ml, CD3 antibody (30 ng/ml) and CD28 antibody (30 ng/ml). • 2. XVIVO 15 medium (Lonza) with CD3 antibody (30 ng/ml) and CD28 antibody (30 ng/ml). • 3. XVIVO 15 medium (Lonza) with IL2 50 IU/ml DAY 1: Cells were plated in a 6-well plate at a density of 1 million cells in 2 ml/of media (as described above) and treated with different inhibitors
(§3) The cell growth medium was changed in 6-well plates and fresh drugs were added at same concentration for one more week.
(§4) […] (DAY 11): Culture medium was changed and fresh drugs were added in 6-well plates.
(§5) Subsequently, cells were washed with RPMI medium and dye was effluxed at 37° C. for 90 min. Cells were washed with […], stained with CD62L-APC (5 μl/100 μl/sample) at 4° C. for 1 h, washed twice with PBS+1% FBS and analyzed on flow cytometer to check if these drugs treatment leads to increase in Pgp+/CD62L positive population.
(§6) Day 0: Blood was obtained from unidentified donor. After RBC lysis, PBMC were collected using Ficoll-Hypaque separation. 200 million T cells were isolated from PBMCs using CD3 microbeads. T cells were cultured overnight in XVIVO 15 medium (Lonza) with IL2 (50 IU/ml), 30 ng/ml of CD3 and CD28 antibodies
(§7) Day 1: Cells were plated in 24-well plates at a density of 0.3 million cells/ml in each well and treated with different drugs.
(§8) On day 7, culture medium was replaced with fresh medium with fresh drugs.
(§9) On day 13, culture medium was replaced with fresh medium and fresh drugs. Half of the cells were transferred to 6-well plates.
(§10) Day 14: An aliquot of cells with all the treatments listed above (for 13 days) was used to stain the cells with DiOC2(3) (60 ng/ml in RPMI medium) at 4° C. for 40 min, washed with RPMI medium, DiOC2(3) dye was effluxed at 37° C. for 90 min, washed with PBS+1% FBS, stained with CD62L-APC antibody. CD62L is a marker for resting T cells. (5 μl/100 μl/sample) at 4° C. for 1 h, washed twice with PBS+1% FBS and analyzed on flow cytometer to check if these drugs are affecting the dye-effluxing or Pgp+ (i.e., DiOC2(3)-dull) T-cell population.

[2] = system: Pgp+ (DiOC2(3)-dye effluxing cells) and CD62L+ T cells; experiment: DiOC2(3) dye efflux plus CD62L-APC staining, flow cytometry of inhibitor-treated T cells
Method: as §1, §2, §3, §4, §5, §6, §7, §8, §9, §10

[3] = system: CD8+CD45RA+CCR7+CD62L+ T cells; experiment: Flow cytometry for CD8, CD45RA, CCR7 and CD62L on inhibitor-treated T cells; conditions: 13 days of treatment
Method: as §2
(§11) A second aliquot of the cells cultured for 13 days with all the treatments listed above (1-21) was washed with PBS+1% FBS, stained with CD8-PerCP, CD45RA-FITC, CCR7-PE and CD62L-APC (5% Y/100 μl/sample for each of 4 antibodies) at 4° C. for 1 h, washed twice with PBS+100 FBS and analyzed on flow cytometer to check if these drugs are enriching T stem cells showing surface expression of CD8+CD45RA+CCR7+CD62L+.
as §6, §7, §8, §9
as §11, with “14” for “13”, “above” for “above (1-21)”, “(5 ul/100 ul/sample” for “(5% Y/100 μl/sample”, “PBS+1%” for “PBS+100”, “enriching for” for “enriching”, “T” for “T stem”

[4] = system: CD45RA+CCR7+CD62L+ T cells; experiment: Flow cytometry for CD45RA, CCR7 and CD62L on inhibitor-treated T cells (all T cells); conditions: 13 days treatment
Method: as §2, §11, §6, §7, §8, §9
as §11, with “14” for “13”, “above” for “above (1-21)”, “(5 ul/100 ul/sample” for “(5% Y/100 μl/sample”, “PBS+1%” for “PBS+100”, “enriching for” for “enriching”, “T” for “T stem”

[5] = culture with CD3 antibody, CD28 antibody and IL2, 6 days of treatment, 500 nM
[6] = CD3-CD28-IL2 culture, inhibitor 100 nM
[7] = CD3-CD28-IL2 culture, inhibitor 500 nM
[8] = CD3-CD28-IL2 culture, inhibitor 1 μM
[9] = CD3-CD28 culture, inhibitor 100 nM
[10] = CD3-CD28 culture, inhibitor 500 nM
[11] = CD3-CD28 culture, inhibitor 1 μM
[12] = CD3-IL2 culture, inhibitor 100 nM
[13] = CD3-IL2 culture, inhibitor 500 nM
[14] = CD3-IL2 culture, inhibitor 1 μM

CCCc1cc(C)[nH]c(=O)c1CNC(=O)c1cc(-c2ccnc(N3CCN(C)CC3)c2)cc2c1cnn2C(C)C [GSK343]
% of Pgp+ cells out of live cells ([1]; CD3-CD28-IL2 culture, inhibitor 100 nM, 6 days of treatment): 23.29% | % of Pgp+ cells out of live cells ([1]; CD3-CD28-IL2 culture, inhibitor 100 nM, 13 days of treatment): 27.15% | % of Pgp+ cells out of live cells ([1]; CD3-CD28-IL2 culture, inhibitor 500 nM, 6 days of treatment): 30.62% | % of Pgp+ cells out of live cells ([1]; CD3-CD28-IL2 culture, inhibitor 500 nM, 13 days of treatment): 18.00% | % of Pgp+ cells out of live cells ([1]; CD3-CD28-IL2 culture, inhibitor 1 μM, 6 days of treatment): 28.03% | % of Pgp+ cells out of live cells ([1]; CD3-CD28-IL2 culture, inhibitor 1 μM, 13 days of treatment): 23.42% | % of Pgp+ cells out of live cells ([1]; CD3-CD28 culture, inhibitor 100 nM, 6 days of treatment): 48.43% | % of Pgp+ cells out of live cells ([1]; CD3-CD28 culture, inhibitor 100 nM, 13 days of treatment): 11.66% | % of Pgp+ cells out of live cells ([1]; CD3-CD28 culture, inhibitor 500 nM, 6 days of treatment): 47.09% | % of Pgp+ cells out of live cells ([1]; CD3-CD28 culture, inhibitor 500 nM, 13 days of treatment): 10.34% | % of Pgp+ cells out of live cells ([1]; CD3-CD28 culture, inhibitor 1 μM, 6 days of treatment): 46.26% | % of Pgp+ cells out of live cells ([1]; CD3-CD28 culture, inhibitor 1 μM, 13 days of treatment): 9.43% | % of Pgp+ cells out of live cells ([1]; CD3-IL2 culture, inhibitor 100 nM, 6 days of treatment): 25.49% | % of Pgp+ cells out of live cells ([1]; CD3-IL2 culture, inhibitor 100 nM, 13 days of treatment): 20.31% | % of Pgp+ cells out of live cells ([1]; CD3-IL2 culture, inhibitor 500 nM, 6 days of treatment): 25.21% | % of Pgp+ cells out of live cells ([1]; CD3-IL2 culture, inhibitor 500 nM, 13 days of treatment): 23.54% | % of Pgp+ cells out of live cells ([1]; CD3-IL2 culture, inhibitor 1 μM, 6 days of treatment): 28.31% | % of Pgp+ cells out of live cells ([1]; CD3-IL2 culture, inhibitor 1 μM, 13 days of treatment): 17.50% | percentage of Pgp+ cells [1, 5]: 30.62% | % of Pgp+ CD62L+cells out of live cells ([2]; CD3-CD28-IL2 culture, inhibitor 100 nM, 6 days treatment): 8.57% | % of Pgp+ CD62L+cells out of live cells ([2]; CD3-CD28-IL2 culture, inhibitor 100 nM, 13 days treatment): 7.96% | % of Pgp+ CD62L+cells out of live cells ([2]; CD3-CD28-IL2 culture, inhibitor 500 nM, 6 days treatment): 13.33% | % of Pgp+ CD62L+cells out of live cells ([2]; CD3-CD28-IL2 culture, inhibitor 500 nM, 13 days treatment): 4.79% | % of Pgp+ CD62L+cells out of live cells ([2]; CD3-CD28-IL2 culture, inhibitor 1 μM, 6 days treatment): 12.05% | % of Pgp+ CD62L+cells out of live cells ([2]; CD3-CD28-IL2 culture, inhibitor 1 μM, 13 days treatment): 5.75% | % of Pgp+ CD62L+cells out of live cells ([2]; CD3-CD28 culture, inhibitor 100 nM, 6 days treatment): 23.35% | % of Pgp+ CD62L+cells out of live cells ([2]; CD3-CD28 culture, inhibitor 100 nM, 13 days treatment): 2.50% | % of Pgp+ CD62L+cells out of live cells ([2]; CD3-CD28 culture, inhibitor 500 nM, 6 days treatment): 24.79% | % of Pgp+ CD62L+cells out of live cells ([2]; CD3-CD28 culture, inhibitor 500 nM, 13 days treatment): 2.12% | % of Pgp+ CD62L+cells out of live cells ([2]; CD3-CD28 culture, inhibitor 1 μM, 6 days treatment): 23.41% | % of Pgp+ CD62L+cells out of live cells ([2]; CD3-CD28 culture, inhibitor 1 μM, 13 days treatment): 2.28% | % of Pgp+ CD62L+cells out of live cells ([2]; CD3-IL2 culture, inhibitor 100 nM, 6 days treatment): 8.62% | % of Pgp+ CD62L+cells out of live cells ([2]; CD3-IL2 culture, inhibitor 100 nM, 13 days treatment): 5.24% | % of Pgp+ CD62L+cells out of live cells ([2]; CD3-IL2 culture, inhibitor 500 nM, 6 days treatment): 9.32% | % of Pgp+ CD62L+cells out of live cells ([2]; CD3-IL2 culture, inhibitor 500 nM, 13 days treatment): 6.82% | % of Pgp+ CD62L+cells out of live cells ([2]; CD3-IL2 culture, inhibitor 1 μM, 6 days treatment): 10.99% | % of Pgp+ CD62L+cells out of live cells ([2]; CD3-IL2 culture, inhibitor 1 μM, 13 days treatment): 5.17% | percentage of Pgp+CD62L+ cells [2, 5]: 13.33% | % of CD62L+CCR7+ double positive cells out of CD45RA+ cells in CD8+ T cell population [3, 6]: 82.96% | % of CD62L+CCR7+ double positive cells out of CD45RA+ cells in CD8+ T cell population [3, 7]: 82.42% | % of CD62L+CCR7+ double positive cells out of CD45RA+ cells in CD8+ T cell population [3, 8]: 85.00% | % of CD62L+CCR7+ double positive cells out of CD45RA+ cells in CD8+ T cell population [3, 9]: 85.28% | % of CD62L+CCR7+ double positive cells out of CD45RA+ cells in CD8+ T cell population [3, 10]: 80.34% | % of CD62L+CCR7+ double positive cells out of CD45RA+ cells in CD8+ T cell population [3, 11]: 85.70% | % of CD62L+CCR7+ double positive cells out of CD45RA+ cells in CD8+ T cell population [3, 12]: 73.95% | % of CD62L+CCR7+ double positive cells out of CD45RA+ cells in CD8+ T cell population [3, 13]: 77.29% | % of CD62L+CCR7+ double positive cells out of CD45RA+ cells in CD8+ T cell population [3, 14]: 81.47% | % of CD62L+CCR7+ double positive cells out of CD45RA+ cells in live T cell population [4, 6]: 66.40% | % of CD62L+CCR7+ double positive cells out of CD45RA+ cells in live T cell population [4, 7]: 64.47% | % of CD62L+CCR7+ double positive cells out of CD45RA+ cells in live T cell population [4, 8]: 67.37% | % of CD62L+CCR7+ double positive cells out of CD45RA+ cells in live T cell population [4, 9]: 75.26% | % of CD62L+CCR7+ double positive cells out of CD45RA+ cells in live T cell population [4, 10]: 67.97% | % of CD62L+CCR7+ double positive cells out of CD45RA+ cells in live T cell population [4, 11]: 76.18% | % of CD62L+CCR7+ double positive cells out of CD45RA+ cells in live T cell population [4, 12]: 58.51% | % of CD62L+CCR7+ double positive cells out of CD45RA+ cells in live T cell population [4, 13]: 61.18% | % of CD62L+CCR7+ double positive cells out of CD45RA+ cells in live T cell population [4, 14]: 61.06%
